Assay results published in patent publication US20230330178A1, “USE OF POLYPEPTIDE IN DRUG FOR PREVENTING AND TREATING PNEUMONIA” (priority 2020, published 2023).
Peptide text beside a SMILES is read from it.

Experiments:
Staphylococcus aureus = experiment: animal or person; assay type: in vivo; details: vs model control group
Method: (§1) Animals in the blank administration group were not modeled, and inhaled a high-concentration polypeptide aerosol (0.48 mg/L) through nose and mouth every day. Animals in the blank control group were instilled with a 0.5 mL 0.9% sodium chloride injection through trachea. After the remaining groups were slightly anesthetized with ether, the model control group, the erythromycin group, the budesonide group, the low-dose polypeptide treatment group, and the high-dose polypeptide treatment group were instilled with a 1×10^8 CFU/mL mixed bacteria solution of Staphylococcus aureus, Streptococcus pneumoniae, and Escherichia coli through trachea, 0.5 mL/rat, respectively, and the blank control group was instilled with a 0.9% sodium chloride injection of a same volume.
(§2) A specific modeling method was as follows: a rat was anesthetized by ether inhalation and lied on an anatomical plate at an angle of 30-45°, trachea of the rat was exposed under an otoscope, a long puncture needle was connected to a 1 mL syringe and inserted into the trachea, each rat was injected with 0.5 mL of mixed bacteria, the puncture needle was pulled out after the injection, the rat was still kept at the original tilt position for about 10 min, and the bacteria solution flowed into bronchus and alveoli due to gravity to cause infection, so as to induce a rat pneumonia model.
(§3) Each group was administrated for the first time at 2 h after modeling. After the experiment begun, 7.16 mg/mL and 71.6 mg/mL peptide solutions were atomized into aerosol particles with target concentrations of 0.07 and 0.48 mg/L every day, and the animals in the low-dose peptide treatment group and the high-dose peptide treatment group (0.54 mg/kg and 3.7 mg/kg, corresponding to drug concentrations 0.07 and 0.48 mg/L respectively) inhaled the aerosol particles with corresponding concentrations through mouth and nose respectively for 7 consecutive days, 10 min/time, 3 times a day; the blank administration group (cumulative dose 22.2 mg/kg, corresponding to a drug concentration 0.48 mg/L) inhaled 0.48 mg/L peptide aerosol particles through mouth and nose every day for 7 consecutive days, 20 min/time, 3 times a day; the blank control group and the model control group inhaled a 0.9% sodium chloride solution for the same time according to the same method; the erythromycin group and the budesonide group were administrated with a 5 mg/mL erythromycin solution and a 0.05 mg/mL budesonide suspension respectively for the same time according to the same method; and body weight of each group was tested every day.
(§4) Except the blank administration group, half animals of the remaining groups were randomly selected for lung function test, gross anatomy examination, and pathological test on D4 day, and lungs of 3 animals in each group were selected for bacteria culture and counting; and on D8 day, the remaining animals were subjected to lung function test, gross anatomy examination, and pathological test, and lungs of 3 animals in each group were selected for bacteria culture and counting (the blank control group and the blank administration group were not examined).
(§5) Experimental steps of bacteria culture: except the blank administration group, six animals were randomly selected from each of the remaining groups (three animals were randomly selected from the first and last anatomies), left middle lobe lung tissues were taken, washed with 0.9% sodium chloride injection, added with double weight of 0.9% sodium chloride injection, and ground into homogenate, the homogenate was inoculated into a meat extract agar medium and cultured at 37° C. for 16 to 18 h, bacteria were isolated, and each isolated bacteria suspension was diluted to 10^−1, 10^−2, 10^−3, 10^−4, 10^−5, 10^−6, 10^−7 and 10^−8 according to 10 times gradient, namely, 9 mL normal saline plus 1 mL bacteria suspension was 10^−1, and so on. […]

Streptococcus pneumoniae = experiment: animal or person; assay type: in vivo; details: vs model control group
Method: as §1, §2, §3, §4, §5

Escherichia coli = experiment: animal or person; assay type: in vivo; details: vs model control group
Method: as §1, §2, §3, §4, §5

SD rats = assay type: in vivo; set-up: MV: minute ventilation: unit not given here
Method: as §1, §3, §4
Experimental steps of gross anatomical examination and pathological test: the rats to be tested were anesthetized by intraperitoneal injection of 20% ethyl carbamate (dose 1000 mg/kg), and lung functions of the rats in each group were first tested with a lung function tester. Blood was collected from a ventral aorta, partial pressure of oxygen (PaO2) and partial pressure of carbon dioxide (PaCO2) in the blood of the rats were measured by using a blood gas analyzer, then left lower lobe lung tissues were taken, fixed in formalin, embedded, sectioned, and stained with HE, and pathological changes were observed under the light microscope.

[1] = Body weight of pneumonia model rats during the experiment; assay type: in vivo, SD rats; details: FIG. 4
Method: as §3

[2] = D4, high-dose 3.7 mg/kg (0.48 mg/L aerosol) inhaled
[3] = D4, low-dose 0.54 mg/kg (0.07 mg/L aerosol) inhaled
[4] = D8, high-dose 3.7 mg/kg (0.48 mg/L aerosol) inhaled
[5] = D8, low-dose 0.54 mg/kg (0.07 mg/L aerosol) inhaled
[6] = D8, not modeled rats (blank administration group), cumulative dose 22.2 mg/kg (0.48 mg/L aerosol) inhaled 7 days

CSCC[C@H](N)C(=O)NCC(=O)N[C@@H](CCCNC(=N)N)C(=O)N[C@@H](Cc1ccccc1)C(=O)N[C@@H](CCCCN)C(=O)N[C@@H](CCCNC(=N)N)C(=O)N[C@@H](Cc1ccccc1)C(=O)N[C@@H](CCCNC(=N)N)C(=O)N[C@@H](CCCCN)C(=O)N[C@@H](CCCCN)C(=O)N[C@@H](Cc1ccccc1)C(=O)N[C@@H](CCCCN)C(=O)N[C@@H](CCCCN)C(=O)N[C@@H](CC(C)C)C(=O)N[C@@H](Cc1ccccc1)C(=O)N[C@@H](CCCCN)C(=O)N[C@@H](CCCCN)C(=O)N[C@@H](CC(C)C)C(=O)N[C@@H](CO)C(=O)O [polypeptide] (H-MGRFKRFRKKFKKLFKKLS-OH)
Inhibition rate of staphylococcus aureus (Staphylococcus aureus; [2]): 90.99% | Inhibition rate of staphylococcus aureus (Staphylococcus aureus; [3]): 80.56% | Inhibition rate of staphylococcus aureus (Staphylococcus aureus; [4]): 97.43% | Inhibition rate of staphylococcus aureus (Staphylococcus aureus; [5]): 96.75% | Inhibition rate of streptococcus pneumoniae (Streptococcus pneumoniae; [2]): 90.49% | Inhibition rate of streptococcus pneumoniae (Streptococcus pneumoniae; [3]): 84.14% | Inhibition rate of streptococcus pneumoniae (Streptococcus pneumoniae; [4]): 98.74% | Inhibition rate of streptococcus pneumoniae (Streptococcus pneumoniae; [5]): 94.95% | Inhibition rate of escherichia coli (Escherichia coli; [2]): 92.16% | Inhibition rate of escherichia coli (Escherichia coli; [3]): 71.19% | Inhibition rate of escherichia coli (Escherichia coli; [4]): 96.57% | Inhibition rate of escherichia coli (Escherichia coli; [5]): 85.77% | FEV200 (forced expiratory volume) (SD rats; [6]): 3.77 ± 1.07 mL | FEV200/FVC (SD rats; [6]): 93.81 ± 3.03% | FVC: forced vital capacity (SD rats; [6]): 4.01 ± 1.08 mL | MV: minute ventilation (SD rats; [6]): 0.20 ± 0.04 | PaCO2: partial pressure of carbon dioxide (SD rats; [6]): 33.09 ± 8.33 mmHg | PaO2: partial pressure of oxygen (SD rats; [6]): 82.77 ± 11.87 mmHg | VT: tidal volume (SD rats; [6]): 1.76 ± 0.25 mL | arterial blood pH (SD rats; [6]): 7.46 ± 0.04 | f: respiratory rate (SD rats; [6]): 116 ± 15 time/min | Lung tissue microscopy (SD rats; D8, not modeled rats (blank administration group), cumulative dose 22.2 mg/kg aerosol inhaled): no obvious abnormality | lung function indexes, and WBC, Neu, TNF-α, and IL-6 in alveolar lavage fluid compared with the blank control group (SD rats; SD rats inhaled 22.2 mg/kg polypeptide solution through nose and mouth for 7 consecutive days): no significant difference | body weight compared with the blank control group (SD rats; not modeled rats (blank administration group), cumulative dose 22.2 mg/kg, FIG. 4): no significant difference | body weight compared with the model control group ([1]; high-dose 3.7 mg/kg (0.48 mg/L aerosol) inhaled): no significant difference | body weight compared with the model control group ([1]; low-dose 0.54 mg/kg (0.07 mg/L aerosol) inhaled): no significant difference
